Measurements: PubChem BioAssay (NCI)
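Protocol summary: plate cells (96-well), add compound at 5 concentrations, incubate 48 h, interpolate endpoints linearly. The concentration for 50% growth inhibition is given as GI50. TGI: total growth inhibition.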

Tests used:
Assay in all cases: inhibition of tumour cell growth, NCI panel, 48 h
786-0 renal = test system: 786-0 renal
A498 renal = test system: A498 renal
A549 NSCLC = test system: A549 NSCLC
ACHN renal = test system: ACHN renal
BT-549 breast = test system: BT-549 breast
CAKI-1 renal = test system: CAKI-1 renal
CCRF-CEM leukemia = test system: CCRF-CEM leukemia
COLO 205 colon = test system: COLO 205 colon
DU-145 prostate = test system: DU-145 prostate
HCC-2998 colon = test system: HCC-2998 colon
HCT-116 colon = test system: HCT-116 colon
HCT-15 colon = test system: HCT-15 colon
HL-60(TB) leukemia = test system: HL-60(TB) leukemia
HOP-62 NSCLC = test system: HOP-62 NSCLC
HOP-92 NSCLC = test system: HOP-92 NSCLC
HS 578T breast = test system: HS 578T breast
HT29 colon = test system: HT29 colon
IGROV1 ovarian = test system: IGROV1 ovarian
K-562 leukemia = test system: K-562 leukemia
KM12 colon = test system: KM12 colon
LOX IMVI melanoma = test system: LOX IMVI melanoma
M14 melanoma = test system: M14 melanoma
MALME-3M melanoma = test system: MALME-3M melanoma
MCF7 breast = test system: MCF7 breast
MDA-MB-231 breast = test system: MDA-MB-231 breast
MDA-MB-435 = test system: MDA-MB-435
MOLT-4 leukemia = test system: MOLT-4 leukemia
NCI-H226 lung = test system: NCI-H226 lung
NCI-H23 lung = test system: NCI-H23 lung
NCI-H460 lung = test system: NCI-H460 lung
NCI-H522 lung = test system: NCI-H522 lung
NCI/ADR-RES ovarian = test system: NCI/ADR-RES ovarian
OVCAR-3 ovarian = test system: OVCAR-3 ovarian
OVCAR-4 ovarian = test system: OVCAR-4 ovarian
OVCAR-5 ovarian = test system: OVCAR-5 ovarian
OVCAR-8 ovarian = test system: OVCAR-8 ovarian
PC-3 prostate = test system: PC-3 prostate
RPMI-8226 leukemia = test system: RPMI-8226 leukemia
RXF 393 renal = test system: RXF 393 renal
SF-268 CNS = test system: SF-268 CNS
SF-295 CNS = test system: SF-295 CNS
SF-539 CNS = test system: SF-539 CNS
SK-MEL-2 melanoma = test system: SK-MEL-2 melanoma
SK-MEL-28 melanoma = test system: SK-MEL-28 melanoma
SK-MEL-5 melanoma = test system: SK-MEL-5 melanoma
SK-OV-3 ovarian = test system: SK-OV-3 ovarian
SN12C renal = test system: SN12C renal
SNB-19 CNS = test system: SNB-19 CNS
SNB-75 CNS = test system: SNB-75 CNS
SR leukemia = test system: SR leukemia
SW-620 colon = test system: SW-620 colon
T-47D breast = test system: T-47D breast
TK-10 renal = test system: TK-10 renal
U251 CNS = test system: U251 CNS
UACC-257 melanoma = test system: UACC-257 melanoma
UACC-62 melanoma = test system: UACC-62 melanoma
UO-31 renal = test system: UO-31 renal

## O=C(NC1CCN(Cc2ccccc2)CC1)c1cc(-c2ccncc2)nc2ccc(Cl)cc12
786-0 renal
  GI50: 6.84 µM
  TGI: 28.7 µM
A498 renal
  TGI: 3.45 µM
A549 NSCLC
  GI50: 10.6 µM
  TGI: 54.2 µM
ACHN renal
  GI50: 6.71 µM
  TGI: 24.7 µM
BT-549 breast
  GI50: 17.2 µM
  TGI: 99.9 µM
CAKI-1 renal
  GI50: 5.43 µM
  TGI: > 50.5 µM
CCRF-CEM leukemia
  GI50: 21.2 µM
  TGI: > 100 µM
COLO 205 colon
  GI50: 7.76 µM
  TGI: 42.7 µM
DU-145 prostate
  GI50: 20.1 µM
  TGI: 63.1 µM
HCC-2998 colon
  GI50: 21.6 µM
  TGI: > 91.1 µM
HCT-116 colon
  GI50: 9.64 µM
  TGI: 33.9 µM
HCT-15 colon
  GI50: 10.5 µM
  TGI: > 48.2 µM
HL-60(TB) leukemia
  GI50: 17.3 µM
  TGI: 59.6 µM
HOP-62 NSCLC
  GI50: 14.5 µM
  TGI: > 100 µM
HOP-92 NSCLC
  GI50: 2490 nM
  TGI: 47.4 µM
HS 578T breast
  GI50: 14.4 µM
  TGI: 64 µM
HT29 colon
  GI50: 4.7 µM
  TGI: 19.7 µM
IGROV1 ovarian
  GI50: 18.5 µM
  TGI: > 100 µM
K-562 leukemia
  GI50: 3.78 µM
  TGI: 27.3 µM
KM12 colon
  GI50: 24.1 µM
  TGI: > 100 µM
LOX IMVI melanoma
  GI50: 12 µM
  TGI: 29.6 µM
M14 melanoma
  GI50: 7.02 µM
  TGI: 34.9 µM
MALME-3M melanoma
  GI50: 9.39 µM
  TGI: 26.9 µM
MCF7 breast
  GI50: 5.66 µM
  TGI: 30.6 µM
MDA-MB-231 breast
  GI50: 4.5 µM
  TGI: > 59.9 µM
MDA-MB-435
  GI50: 15 µM
  TGI: > 88.7 µM
MOLT-4 leukemia
  GI50: 4.26 µM
  TGI: > 46.3 µM
NCI-H226 lung
  GI50: 30.2 µM
  TGI: > 100 µM
NCI-H23 lung
  GI50: 43.5 µM
  TGI: > 100 µM
NCI-H460 lung
  GI50: 11.4 µM
  TGI: 33.7 µM
NCI-H522 lung
  GI50: 22.2 µM
  TGI: 60.6 µM
NCI/ADR-RES ovarian
  GI50: 22.2 µM
  TGI: > 100 µM
OVCAR-3 ovarian
  GI50: 15.4 µM
  TGI: 40.1 µM
OVCAR-4 ovarian
  GI50: 10.7 µM
  TGI: 59.6 µM
OVCAR-5 ovarian
  GI50: 13.9 µM
  TGI: > 100 µM
OVCAR-8 ovarian
  GI50: 22.5 µM
  TGI: > 72.9 µM
PC-3 prostate
  GI50: 13.6 µM
  TGI: > 100 µM
RPMI-8226 leukemia
  GI50: 12.4 µM
  TGI: > 74 µM
RXF 393 renal
  GI50: 5.48 µM
  TGI: 49.2 µM
SF-268 CNS
  GI50: 22.6 µM
  TGI: > 100 µM
SF-295 CNS
  GI50: 17.4 µM
  TGI: 53.5 µM
SF-539 CNS
  GI50: 13.1 µM
  TGI: 35.9 µM
SK-MEL-2 melanoma
  GI50: 29.8 µM
  TGI: 87.1 µM
SK-MEL-28 melanoma
  GI50: 10.5 µM
  TGI: > 50.7 µM
SK-MEL-5 melanoma
  GI50: 9.07 µM
  TGI: 21.7 µM
SK-OV-3 ovarian
  GI50: 23.3 µM
  TGI: > 100 µM
SN12C renal
  GI50: 35.6 µM
  TGI: > 100 µM
SNB-19 CNS
  GI50: 26.3 µM
  TGI: > 100 µM
SNB-75 CNS
  GI50: 2430 nM
  TGI: 30.4 µM
SR leukemia
  GI50: 6.82 µM
  TGI: 34.8 µM
SW-620 colon
  GI50: 19.8 µM
  TGI: > 100 µM
T-47D breast
  GI50: 13.3 µM
  TGI: 49.1 µM
TK-10 renal
  GI50: 29.7 µM
  TGI: > 91.8 µM
U251 CNS
  GI50: 17.1 µM
  TGI: > 71.7 µM
UACC-257 melanoma
  GI50: 16.9 µM
  TGI: 36.3 µM
UACC-62 melanoma
  GI50: 20.6 µM
  TGI: > 85.3 µM
UO-31 renal
  GI50: 3.12 µM
  TGI: 33.9 µM
